Experimental data as given in ChEMBL document CHEMBL5512655, “Discovery of indolylacryloyl-derived oxacins as novel potential broad-spectrum antibacterial candidates” (Eur J Med Chem, 2024).
In brackets after ≈: the same amount, converted by molar mass. Activity calls are given as the source filed them. The calls are words filed in the database; no cut-off is given here.

What was measured:
Staphylococcus aureus [1] = assay: Antibacterial activity against methicillin-resistant Staphylococcus aureus N315 assessed as inhibition of bacterial growth measured after 24 hrs incubation; type: functional
Staphylococcus aureus [2] = assay: Antibacterial activity against Staphylococcus aureus assessed as inhibition of bacterial growth measured after 24 hrs incubation; type: functional
Staphylococcus aureus [3] = assay: Antibacterial activity against Staphylococcus aureus ATCC 25923 assessed as inhibition of bacterial growth measured after 24 hrs incubation; type: functional
Staphylococcus aureus [4] = assay: Antibacterial activity against Staphylococcus aureus ATCC 29213 assessed as inhibition of bacterial growth measured after 24 hrs incubation; type: functional
Enterococcus faecalis [5] = assay: Antibacterial activity against Enterococcus faecalis assessed as inhibition of bacterial growth measured after 24 hrs incubation; type: functional
Escherichia coli [6] = assay: Antibacterial activity against Escherichia coli assessed as inhibition of bacterial growth measured after 24 hrs incubation; type: functional
Pseudomonas aeruginosa [7] = assay: Antibacterial activity against Pseudomonas aeruginosa assessed as inhibition of bacterial growth measured after 24 hrs incubation; type: functional
Pseudomonas aeruginosa [8] = assay: Antibacterial activity against Pseudomonas aeruginosa ATCC 27853 assessed as inhibition of bacterial growth measured after 24 hrs incubation; type: functional
Acinetobacter baumannii [9] = assay: Antibacterial activity against Acinetobacter baumannii assessed as inhibition of bacterial growth measured after 24 hrs incubation; type: functional
Staphylococcus aureus [10] = assay: Potency index, ratio of norfloxacin MIC to test compound MIC for antibacterial activity against Staphylococcus aureus assessed as inhibition of bacterial growth measured after 24 hrs incubation; type: functional
Staphylococcus aureus [11] = assay: Potency index, ratio of norfloxacin MIC to test compound MIC for antibacterial activity against Staphylococcus aureus ATCC 25923 assessed as inhibition of bacterial growth measured after 24 hrs incubation; type: functional
Staphylococcus aureus [12] = assay: Potency index, ratio of norfloxacin MIC to test compound MIC for antibacterial activity against Staphylococcus aureus ATCC 29213 assessed as inhibition of bacterial growth measured after 24 hrs incubation; type: functional
Enterococcus faecalis [13] = assay: Potency index, ratio of norfloxacin MIC to test compound MIC for antibacterial activity against Enterococcus faecalis assessed as inhibition of bacterial growth measured after 24 hrs incubation; type: functional
Klebsiella pneumoniae = assay: Potency index, ratio of norfloxacin MIC to test compound MIC for antibacterial activity against Klebsiella pneumonia assessed as inhibition of bacterial growth measured after 24 hrs incubation; type: functional
Escherichia coli [14] = assay: Potency index, ratio of norfloxacin MIC to test compound MIC for antibacterial activity against Escherichia coli assessed as inhibition of bacterial growth measured after 24 hrs incubation; type: functional
Escherichia coli [15] = assay: Potency index, ratio of norfloxacin MIC to test compound MIC for antibacterial activity against Escherichia coli ATCC 25922 assessed as inhibition of bacterial growth measured after 24 hrs incubation; type: functional
Pseudomonas aeruginosa [16] = assay: Potency index, ratio of norfloxacin MIC to test compound MIC for antibacterial activity against Pseudomonas aeruginosa assessed as inhibition of bacterial growth measured after 24 hrs incubation; type: functional
Pseudomonas aeruginosa [17] = assay: Potency index, ratio of norfloxacin MIC to test compound MIC for antibacterial activity against Pseudomonas aeruginosa ATCC 27853 assessed as inhibition of bacterial growth measured after 24 hrs incubation; type: functional
Acinetobacter baumannii [18] = assay: Potency index, ratio of norfloxacin MIC to test compound MIC for Antibacterial activity against Acinetobacter baumannii assessed as inhibition of bacterial growth measured after 24 hrs incubation; type: functional
[19] = Hemolytic activity in human red blood cells assessed as hemolysis rate at 64 ug/ml relative to control; type: toxicity, cell-based, Erythrocyte; details: red blood cells (erythrocytes), at 64 µg/mL, read-out: Activity
[20] = Hemolytic activity in human red blood cells assessed as hemolysis rate at 512 ug/ml relative to control; type: toxicity, cell-based, Erythrocyte; details: red blood cells (erythrocytes), at 512 µg/mL, read-out: Activity
[21] = Cytotoxicity against human L02 cells assessed as cell viability at 16 ug/ml measured after 24 hrs relative to control; type: toxicity, cell-based; details: at 16 µg/mL, read-out: Activity
[22] = Cytotoxicity against HUVEC cells assessed as cell viability at 64 ug/ml measured after 24 hrs relative to control; type: toxicity, cell-based; details: human, at 64 µg/mL, read-out: Activity
Staphylococcus aureus [23] = assay: Antibacterial activity against methicillin-resistant Staphylococcus aureus N315 assessed as resistance development measured after 18 generations; type: functional, organism-based
Staphylococcus aureus [24] = assay: Antibacterial activity against methicillin-resistant Staphylococcus aureus N315 assessed as resistance development measured after 10 generations; type: functional, organism-based
Staphylococcus aureus [25] = assay: Antibacterial activity against methicillin-resistant Staphylococcus aureus N315 assessed as reduction in bacterial burden at 2 to 4 times of MIC measured within 5 hrs by time-dependent kinetics assay; type: functional, organism-based
Escherichia coli [26] = assay: Antibacterial activity against Escherichia coli assessed as reduction in bacterial burden at 2 to 4 times of MIC measured upto 7 hrs by time-dependent kinetics assay; type: functional, organism-based
Staphylococcus aureus [27] = assay: Anti-biofilm effect in methicillin-resistant Staphylococcus aureus N315 assessed as biofilm destruction by measuring reduced biofilm content at MIC; type: functional
Escherichia coli [28] = assay: Anti-biofilm effect in Escherichia coli assessed as biofilm destruction by measuring reduced biofilm content at MIC; type: functional
Staphylococcus aureus [29] = assay: Anti-biofilm effect in methicillin-resistant Staphylococcus aureus N315 assessed as biofilm destruction rate at 6 times of MIC; type: functional
Escherichia coli [30] = assay: Anti-biofilm effect in Escherichia coli assessed as biofilm destruction rate at 6 times of MIC; type: functional
Staphylococcus aureus [31] = assay: Anti-biofilm effect in methicillin-resistant Staphylococcus aureus N315 assessed as inhibition of biofilm formation by measuring reduction in exo-polysaccharide content at 6 times of MIC relative to control; type: functional
Escherichia coli [32] = assay: Anti-biofilm effect in Escherichia coli assessed as inhibition of biofilm formation by measuring reduction in exo-polysaccharide content at 6 times of MIC relative to control; type: functional
Cell membrane [33] = assay: Induction of cell membrane damage in methicillin-resistant Staphylococcus aureus N315 assessed as increase in density of red fluorescence at 4 times of MIC by Calcein-AM/PI dual staining based fluorescence microscopy; type: cell membranes
Cell membrane [34] = assay: Induction of cell membrane damage in Escherichia coli assessed as increase in density of red fluorescence at 4 times of MIC by Calcein-AM/PI dual staining based fluorescence microscopy; type: cell membranes
Escherichia coli [35] = assay: Induction of ROS production in Escherichia coli assessed as fluorescence intensity by DCFH-DA (dichlorofluorescin diacetate) probe based assay; type: functional, organism-based
Escherichia coli [36] = assay: Induction of ROS production in Escherichia coli assessed as fluorescence intensity at 2 times of MIC by DCFH-DA (dichlorofluorescin diacetate) probe based assay; type: functional
Staphylococcus aureus [37] = assay: Induction of lipid peroxidation in methicillin-resistant Staphylococcus aureus N315 assessed as malondialdehyde (MDA) level production; type: functional, organism-based
Escherichia coli [38] = assay: Induction of lipid peroxidation in Escherichia coli assessed as malondialdehyde (MDA) level production; type: functional, organism-based
Escherichia coli [39] = assay: Induction of lipid peroxidation in Escherichia coli assessed as malondialdehyde (MDA) level production at 4 time of MIC; type: functional, organism-based
Staphylococcus aureus [40] = assay: Reduction in metabolic activity in methicillin-resistant Staphylococcus aureus N315 by Alamar Blue assay; type: functional, organism-based
Calf thymus DNA = assay: Binding affinity to calf thymus DNA assessed as DNA intercalation with drug by […] assay; type: nucleic-acid assay; details: Bos taurus
Staphylococcus aureus [41] = assay: Induction of ROS production in methicillin-resistant Staphylococcus aureus N315 assessed as fluorescence intensity at 2 times of MIC by DCFH-DA (dichlorofluorescin diacetate) probe based assay

CCOC(=O)Cn1cc(/C=C(\C#N)C(=O)N2CCN(c3cc4c(cc3F)c(=O)c(C(=O)O)cn4CC)CC2)c2ccccc21
MIC (Staphylococcus aureus [1]): 0.25 µg/mL (≈ 0.417 µM) | MIC (Staphylococcus aureus [2]): 0.25 µg/mL (≈ 0.417 µM) | MIC (Staphylococcus aureus [3]): 0.25 µg/mL (≈ 0.417 µM) | MIC (Staphylococcus aureus [4]): 0.25 µg/mL (≈ 0.417 µM) | MIC (Enterococcus faecalis [5]): 0.25 µg/mL (≈ 0.417 µM) | MIC (Escherichia coli [6]): 0.25 µg/mL (≈ 0.417 µM) | MIC (Pseudomonas aeruginosa [7]): 0.5 µg/mL (≈ 0.834 µM) | MIC (Pseudomonas aeruginosa [8]): 0.5 µg/mL (≈ 0.834 µM) | MIC (Acinetobacter baumannii [9]): 0.25 µg/mL (≈ 0.417 µM) | Ratio (Staphylococcus aureus [10]): 1 | Ratio (Staphylococcus aureus [11]): 1 | Ratio (Staphylococcus aureus [12]): 1 | Ratio (Enterococcus faecalis [13]): 1 | Ratio (Klebsiella pneumoniae): 1 | Ratio (Escherichia coli [14]): 1 | Ratio (Escherichia coli [15]): 1 | Ratio (Pseudomonas aeruginosa [16]): 1 | Ratio (Pseudomonas aeruginosa [17]): 1 | Ratio (Acinetobacter baumannii [18]): 1 | hemolysis at 64 ug/ml [19]: < 5% | hemolysis at 512 ug/ml [20]: < 5% | viability at 24 h, 16 ug/ml [21]: 80% | viability at 24 h, 64 ug/ml [22]: 85% | Activity (Staphylococcus aureus [23]): Active | Activity (Staphylococcus aureus [24]): inactive | Activity (Staphylococcus aureus [25]): Active | Activity (Escherichia coli [26]): Active | inhibition (INH) (Staphylococcus aureus [27]): 68.8% | inhibition (INH) (Escherichia coli [28]): 82.7% | inhibition (INH) (Staphylococcus aureus [29]): >60% | inhibition (INH) (Escherichia coli [30]): >60% | inhibition (INH) (Staphylococcus aureus [31]): <50% | inhibition (INH) (Escherichia coli [32]): <50% | Activity (Cell membrane [33]): Active | Activity (Cell membrane [34]): Active | Activity (Escherichia coli [35]): Dose-Dependent Effect | Activity (Escherichia coli [36]): >50% | Activity (Staphylococcus aureus [37]): Dose-Dependent Effect | Activity (Escherichia coli [38]): Dose-Dependent Effect | Activity (Escherichia coli [39]): Active | Activity (Staphylococcus aureus [40]): Dose-Dependent Effect | Activity (Calf thymus DNA): Active | Activity (Staphylococcus aureus [41]): >50%
